Reference: the NIST ThermoML archive (doi:10.1016/j.jct.2007.07.005)

Settings: Fluid (supercritical or subcritical phases), vibrating tube

CCCCCO [pentan-1-ol]
Settings | mass density [kg/m3]
312.96 K, 512 kPa | 799.65
312.96 K, 1022 kPa | 800.04
312.96 K, 1998 kPa | 800.77
312.96 K, 3005 kPa | 801.53
312.96 K, 4003 kPa | 802.28
312.96 K, 5002 kPa | 803.02
312.96 K, 6018 kPa | 803.76
312.96 K, 6994 kPa | 804.49
312.96 K, 8008 kPa | 805.21
312.96 K, 9005 kPa | 805.93
312.96 K, 10008 kPa | 806.66
312.96 K, 11008 kPa | 807.37
312.96 K, 12000 kPa | 808.07
312.96 K, 13024 kPa | 808.78
312.96 K, 13987 kPa | 809.45
312.96 K, 15014 kPa | 810.14
312.96 K, 15991 kPa | 810.8
312.96 K, 17019 kPa | 811.48
312.96 K, 17991 kPa | 812.12
312.96 K, 19007 kPa | 812.79
312.96 K, 19992 kPa | 813.44
312.96 K, 21031 kPa | 814.1
312.96 K, 22041 kPa | 814.76
312.96 K, 23014 kPa | 815.41
312.96 K, 24003 kPa | 816.04
312.96 K, 25037 kPa | 816.73
322.89 K, 520 kPa | 792.06
322.89 K, 1010 kPa | 792.47
322.89 K, 2005 kPa | 793.27
322.89 K, 3007 kPa | 794.07
322.89 K, 4005 kPa | 794.86
322.89 K, 5018 kPa | 795.63
322.89 K, 6001 kPa | 796.42
322.89 K, 7016 kPa | 797.2
322.89 K, 8020 kPa | 797.97
322.89 K, 8997 kPa | 798.71
322.89 K, 10001 kPa | 799.47
322.89 K, 11005 kPa | 800.21
322.89 K, 11996 kPa | 800.95
322.89 K, 13002 kPa | 801.68
322.89 K, 14013 kPa | 802.4
322.89 K, 15005 kPa | 803.11
322.89 K, 16014 kPa | 803.82
322.89 K, 17001 kPa | 804.51
322.89 K, 18016 kPa | 805.21
322.89 K, 19012 kPa | 805.89
322.89 K, 19992 kPa | 806.56
322.89 K, 21036 kPa | 807.26
322.89 K, 22003 kPa | 807.92
322.89 K, 23024 kPa | 808.61
322.89 K, 23994 kPa | 809.26
322.89 K, 25023 kPa | 810
332.79 K, 493 kPa | 784.29
332.79 K, 1014 kPa | 784.76
332.79 K, 2006 kPa | 785.61
332.79 K, 3025 kPa | 786.48
332.79 K, 4011 kPa | 787.28
332.79 K, 5020 kPa | 788.11
332.79 K, 6003 kPa | 788.91
332.79 K, 6997 kPa | 789.73
332.79 K, 8009 kPa | 790.54
332.79 K, 8995 kPa | 791.31
332.79 K, 9996 kPa | 792.12
332.79 K, 11018 kPa | 792.9
332.79 K, 11995 kPa | 793.66
332.79 K, 13023 kPa | 794.45
332.79 K, 13999 kPa | 795.19
332.79 K, 15010 kPa | 795.95
332.79 K, 16028 kPa | 796.68
332.79 K, 17003 kPa | 797.41
332.79 K, 18040 kPa | 798.14
332.79 K, 19004 kPa | 798.84
332.79 K, 20035 kPa | 799.59
332.79 K, 21024 kPa | 800.29
332.79 K, 21993 kPa | 800.97
332.79 K, 23039 kPa | 801.71
332.79 K, 24015 kPa | 802.4
332.79 K, 25022 kPa | 803.12
